Results from patent US9023354B2, “Combination therapy with MDM2 and EFGR inhibitors” (priority 2010, dated 2015).
Like-named read-outs stand apart in the source and are kept apart here.

Experiments:
[1] = tested on: p53-induced reporter gene activity; assay: p53 reporter gene assay in HEK293 cells; type: cell-based; conditions: 10 μM
Description: This example describes an assay that measures the ability of compounds to stimulate p53-induced reporter gene activity. In order for p53 activity to be observed, the interaction of p53 with MDM2 must be inhibited. Methods are according to Examples 1-5 unless otherwise specified.
HEK293 cells were transiently transfected with the inducible p53-responsive firefly luciferase reporter and constitutively-expressing Renilla construct. After 16 hrs of transfection at 37° C., 5% CO2, the transfection media was removed and 200 μl/well of assay media was added. The cells were then incubated for 8 hrs at 37° C., 5% CO2.
[…] of compound(s) was added to the cells and incubated for 16 hrs at 37° C. and 5% CO2. The cells were carefully washed with 200 μl of PBS. 20 μl_of lysis buffer was then added to each well and incubated at room temperature for 15 minutes with shaking.
The lysis buffer supernatant was transferred to a white/opaque CoStar 96-well plate and 100 μl of firefly luceriferase assay substrate was added. The luminescence in each well was determined using a Polarstar plate reader.
100 μl of Stop and Glow reagent was added to each well, mixed, and the luminescence generated by the Renilla luciferase was determined using a Polarstar plate reader. The Renilla signal was used to normalize the transfection efficiency and cell viability.

[2] = tested on: apoptosis-related proteins in A549 cells; assay: Proteome profile of apoptosis-related proteins; type: cell-based, human; conditions: 5 μM
Source text: This example describes an assay that measured the relative expression levels of 35 apoptosis-related proteins in a single sample of whole cell extract. Methods are according to Examples 1-2 unless otherwise specified.
The protocol and reagents were purchased from R&D systems (Human apoptosis array kit; cat. #ARY009). The kit consisted of an antibody array spotted on nitrocellulose membranes with each specific antibody printed in duplicate. The detection antibodies were biotinylated so they could be used with a streptavidin-HRP conjugate designed for chemiluminescent imaging. The protocol was modified to utilize the LiCor infrared imaging technology by substituting an infrared 680 nm-tagged streptavidin.
The following day, two μl of compound dilutions in 100% DMSO were added to the appropriate wells resulting in a final concentration of 5 μM. The plates were then incubated for 6 hours at 37° C., 5% CO2, and 85% relative humidity. Following incubation, the cells were washed with 2 ml of PBS, then lysed with 500 μl/well of Lysis buffer, supplemented with a 1/200 dilution of mammalian protease inhibitor cocktail (Sigma Aldrich). The plates were shaken for 30 min at room temperature, spun @ 14,000×g for 5 minutes. 250 μl of the supernatant was removed and added to 1.25 ml of Assay buffer 1. The supernatant and Assay buffer 1 were incubated with membranes overnight at room temperature with shaking.
The following day, the membranes were washed 3 times for 10 min each, with 1× wash buffer in individual 50 ml Falcon tubes at room temperature with rotation. The membranes were incubated with a 1/100 dilution of biotinylated detection antibodies for 3 hours at room temperature with shaking.
The membranes were washed, then incubated with a 1/1000 dilution of IR 680 nm-labeled streptavidin (LiCor) for 60 minutes with shaking in the dark. The membranes were again washed. Excess buffer was blotted from membranes, placed between two pieces of transparent plastic and imaged on the LiCor infrared imager. The LiCor Odyssey software is used to quantitate the pixel intensity of each spot in the array.
First, several compounds were evaluated in a proteome profiling array system containing antibodies to 35 apoptosis-related proteins. In this assay (see Example 3), the relative expression levels of these proteins in cell extracts are measured from treated and non-treated A549 cells.

A549 cells = assay: DNA fragmentation (Cell Death Detection ELISA), measurement of apoptosis; conditions: Homo sapiens
Description: The plates were allowed to incubate overnight @ 37° C., 5% CO2. On day 2, the media was removed from the plates and 160 μl media containing 5% FBS was added. 40 μl of media-containing test compound in 100% DMSO (prepared at 5× the dosing concentration) was added to the existing media resulting in a final DMSO concentration of 0.5%. Cells were incubated in the presence of a compound for 24 hrs @ 37° C., 5% CO2.
After 24 hrs, the abovementioned plates were centrifuged at 200×g for 10 min. The media was removed by gently inverting the plate and disposing of the media onto a paper towel. The plates were tapped gently to remove excess media. 200 μl lysis buffer was added to each well, and mixed by shaking at 300 rpm. The plates were incubated at room temperature for 30 min. The plates were centrifuged at 200×g for 10 min and 20 μl of lysis supernatant was removed for use in ELISA analysis to detect cell death.
20 μl of the cell lysis supernatant was placed into streptavidin-coated plates with 20 μl positive control and 20 μl incubation buffer negative control. Add 80 μl Immunoreagent (for DNA fragment detection) to each well. The wells were covered with foil adhesive and shaken at 300 rpm for 2 h at room temperature. The supernatant solution was removed and the wells were washed 3 times with 300 μl incubation buffer. 100 μl of ABTS detection substrate was added to each well. The wells were incubated on a plate shaker at 250 rpm for approximately 10-20 min. 100 μl ABTS of stop buffer was then added. […] The absorbance measures the colored product spectrophotometrically, correlating with apoptosis.
The percent increase in DNA fragmentation produced by compounds at a concentration of 1 and 10 μM were compared to background, and to the response produced by 500 nM staurosporin.

[3] = Stability toward liver microsome incubation; type: in vitro ADME
A431 cells [4] = assay: A431 cell proliferation assay (MTT), alone and in combination with Tarceva; type: cell-based; conditions: for A431 Cell Proliferation CI Value / synergistic effects with Tarceva in A431 cell proliferation (in words): combination with Tarceva; for A431 Cell Proliferation CI Value: CI <0.8 indicates synergy
Description: This example describes an assay that measures the ability of compounds to inhibit the proliferation of cultured cells. This assay can also be used to assess whether combining two or more compounds produces additive, synergistic, or antagonistic effects on cell growth.
On day 1, the cells were seeded at 10^3 cells per well in 100 μl of complete media under standard conditions.
On day 2, the cells were washed and 100 μl serum free media was added. The cells were then incubated for at least 2 hours before the addition of compound(s). 20 μl of compound(s) was added to the respective wells and incubated at 37° C., 5% CO2 for 72 hrs.
On day 5, 50 μl of the MTT dye solution was added to each well. The plates were incubated at 37° C., 5% CO2 for 1 hr. The media was then aspirated and the cells were resuspended in […] of DMSO. The plates were allowed to incubate for 5 min at room temperature with gentle shaking.
The absorbance in each well was determined at 560 nm using a Polarstar plate reader.
The A431 cell line over-expresses the EGF receptor, and was utilized to assess the ability of AD4 compounds to inhibit EGF-mediated cell proliferation.

A431 cells [5] = assay: Caspase 3/7 activity, measurement of apoptosis; type: cell-based; conditions: 10 μM compared to 10 μM Tarceva
p53/MDM2 binding = p53/MDM2 binding (Homo sapiens (Human), UniProt Q00987); assay: AlphaScreen measurement of p53/MDM2 interaction (truncated GST-MDM2 aa 1-150)
Chain of p53/MDM2 binding (Q00987 1-150): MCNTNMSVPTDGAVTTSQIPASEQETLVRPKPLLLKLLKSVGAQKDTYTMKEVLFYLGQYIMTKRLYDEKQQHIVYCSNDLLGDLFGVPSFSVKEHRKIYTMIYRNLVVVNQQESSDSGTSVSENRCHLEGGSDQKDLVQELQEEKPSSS
Description: The following example describes an assay that measured the ability of compounds to inhibit the binding of p53 to MDM2 using the AlphaScreen assay technology (PerkinElmer). […] Recombinant, truncated, human, N-terminal GST-MDM2 (aa 1-150) was obtained from GeneScript. Wild-type, full length human N-terminal 6-his p53 was purchased from SignalChem.
Resulting in a final reaction volume of 24 μl PBS, 0.1% Tween-20, and 10% glycerol, 30 ng of MDM2 was added, followed by the addition of 10 of compound diluted in 100% DMSO that provided a final DMSO concentration of 4%. 30 ng of p53 was then added, mixed, and incubated at room temperature for 1 hour. Glutathione donor beads and Nickel acceptor beads (0.5 μg each; PerkinElmer) were added under subdued lighting conditions to a final reaction volume of 30 μl/well in a 96 well, ½ volume Proxima plate. The reaction was incubated at room temperature with shaking for 18 hrs in the dark. Analysis was then performed on a PerkinElmer EnSpire plate reader to determine the ability of compounds to inhibit the binding of p53 to MDM2.

[6] = molecular target: p53/MDM2 binding (full length MDM2) (Homo sapiens (Human), UniProt Q00987); assay: AlphaScreen p53/MDM2 binding with full length GST-MDM2; conditions: FIG. 1, read-out: inhibition of p53/MDM2 binding EC50
Chain of p53/MDM2 binding (full length MDM2) (Q00987 whole entry, the tested form may be a part): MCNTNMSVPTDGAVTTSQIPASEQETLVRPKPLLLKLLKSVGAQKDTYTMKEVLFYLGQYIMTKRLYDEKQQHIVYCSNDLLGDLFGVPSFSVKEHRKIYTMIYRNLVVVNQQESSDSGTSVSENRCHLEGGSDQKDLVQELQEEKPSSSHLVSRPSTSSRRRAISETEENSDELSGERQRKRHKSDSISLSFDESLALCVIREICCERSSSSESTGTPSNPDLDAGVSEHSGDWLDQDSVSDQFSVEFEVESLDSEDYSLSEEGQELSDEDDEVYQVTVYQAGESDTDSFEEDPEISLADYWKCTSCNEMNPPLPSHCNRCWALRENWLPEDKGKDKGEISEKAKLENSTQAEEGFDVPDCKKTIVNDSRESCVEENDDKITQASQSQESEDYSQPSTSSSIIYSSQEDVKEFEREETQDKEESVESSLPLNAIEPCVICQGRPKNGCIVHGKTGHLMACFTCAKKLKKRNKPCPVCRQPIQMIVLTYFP

[7] = A549, read-out: % Inc. Relative to Staurosporin (500 nM), DNA fragmentation
[8] = A549, read-out: % Inc. over Background, DNA fragmentation
[9] = Homo sapiens, A-431, A431 cells, further studies, Example 9, Table 7A, read-out: A431 Cell Proliferation (IC50 Value)
[10] = Homo sapiens, A-431, A431 cells, preliminary assessment, Example 8, Table 6A, read-out: A431 Cell Proliferation (IC50)
[11] = Table 7C, read-out: p53/MDM2 IC50 Value
[12] = Table 9, read-out: Inhibition of p53/MDM2 Binding IC50 Value
[13] = A431 cells, further studies, Example 9, Table 7A, read-out: A431 Cell Proliferation (IC50 Value)
[14] = A431 cells, preliminary assessment, Example 8, Table 6A, read-out: A431 Cell Proliferation (IC50)

Compound	stimulation of p53 reporter gene activity [1] [fold]	A431 Cell Proliferation CI Value (A431 cells [4]; Example 9, Table 7B)	Caspase 3/7 activity % Increase Relative to Tarceva (A431 cells [5]) [%]	IC50 (A431 cells [4]; [9]) [µM]	A431 Cell Proliferation CI Value (A431 cells [4]; Example 8, Table 6B)	IC50 (p53/MDM2 binding; [11]) [µM]	IC50 (p53/MDM2 binding; [12]) [µM]	also measured
CCOc1ccc(C(Nc2ccccn2)c2cc(Cl)c3cccnc3c2O)cc1 (centres unmarked) [AD4-10953]	9.7							
Cc1cc(Cl)cnc1NC(c1ccc(Cl)cc1Cl)c1ccc2cccnc2c1O (centres unmarked) [AD4-13130]								phosphorylated forms of p53 [2]: increased all three phosphorylated forms of p53; activation at 1 µM (A549 cells; [7]): 58%; activation at 10 µM (A549 cells; [7]): 65%; activation at 1 µM (A549 cells; [8]): 565%; activation at 10 µM (A549 cells; [8]): 614%
Oc1c(C(Nc2ccc(Cl)cn2)c2ccc(C(F)(F)F)cc2)ccc2cccnc12 (centres unmarked) [AD4-13053]		0.78						stability (toward liver microsome incubation) [3]: increased stability over AD4-10628
Oc1c(C(Nc2ncc(C(F)(F)F)cc2F)c2ccc(Cl)cc2Cl)ccc2cccnc12 (centres unmarked) [AD4-13165]								phosphorylated forms of p53 [2]: increased all three phosphorylated forms of p53; stability (toward liver microsome incubation) [3]: increased stability; activation at 1 µM (A549 cells; [7]): 24%; activation at 10 µM (A549 cells; [7]): 74%; activation at 1 µM (A549 cells; [8]): 172%; activation at 10 µM (A549 cells; [8]): 582%
COc1ccc(C(Nc2cc(C)ccn2)c2ccc3cccnc3c2O)cc1O (centres unmarked) [AD4-1505]	42.5	0.29	45	3.7	0.45	3.6	4.2	IC50 (A431 cells [4]; [10]): 3.7 µM; synergistic effects with Tarceva in A431 cell proliferation (in words) (A431 cells [4]): produced the greatest effects; EC50 [6]: 0.27 µM
Cc1ccnc(NC(c2ccccc2Cl)c2ccc3cccnc3c2O)c1 (centres unmarked) [AD4-12907]		0.71		2.6		9.2	9.2	
Oc1c(C(Nc2cccnc2)c2ccc(C(F)(F)F)cc2)ccc2cccnc12 (centres unmarked) [AD4-10942]		0.57	72		0.60	18	18	IC50 (A431 cells [4]; [13]): 3.2 µM; IC50 (A431 cells [4]; [14]): 3.2 µM
Cc1ccc(C)c(C(Nc2cccnc2)c2cc(Cl)c3cccnc3c2O)c1 (centres unmarked) [AD4-10944]	7.5							IC50 (A431 cells [4]; [13]): 1.8 µM; IC50 (A431 cells [4]; [14]): 1.8 µM
Cc1ccnc(NC(c2ccc3cccnc3c2O)c2sccc2C)c1 (centres unmarked) [AD4-10963]		0.63	38	3.4	0.43	2	2	IC50 (A431 cells [4]; [10]): 3.4 µM; synergistic effects with Tarceva in A431 cell proliferation (in words) (A431 cells [4]): produced the greatest effects; EC50 [6]: 0.1 µM
